From patent US9402842B2, “Synthesis and use of dual tyrosyl-DNA phosphodiesterase I (Tdp1)—topoisomerase I (Top1) inhibitors” (Purdue Research Foundation, priority 2012, dated 2016)

Key:
recombinant human Tdp1 = recombinant human Tdp1 (Homo sapiens (Human), UniProt Q9NUW8); experiment: Gel-based assay measuring the inhibition of recombinant Tdp1; assay type: biochemical; conditions: for IC50: determined by duplicate, read-out: Tdp1 (semiquantitative IC50 scale); for Tdp1 inhibitory activity (in words): recombinant Tdp1
Procedure: Tdp1 inhibitory activity was measured by the drug's ability to inhibit the hydrolysis of the phosphodiester linkage between tyrosine and the 3′-end of the DNA substrate, and to prevent the generation of an oligonucleotide with a free 3′-phosphate (N14P). Therefore, the disappearance of the gel band for N14P indicated Tdp1 inhibition.
Gel-based Assay Measuring the Inhibition of Recombinant Tdp1.
A 5′-[^32P]-labeled single-stranded DNA oligonucleotide containing a 3′-phosphotyrosine (N14Y) was generated as described by Dexheimer et al. The DNA substrate was then incubated with 5 pM recombinant Tdp1 in the absence or presence of inhibitor for 15 min at room temperature in a buffer containing 50 mM Tris HCl, pH 7.5, 80 mM KCl, 2 mM EDTA, 1 mM DTT, 40 μg/ml BSA and 0.01% Tween-20. […] Gel images were scanned using a Typhoon 8600 (GE Healthcare) and densitometric analyses were performed using the ImageQuant software (GE Healthcare).

human recombinant Top1 = human recombinant Top1 (Homo sapiens (Human), UniProt P11387); experiment: Topoisomerase I-mediated DNA cleavage reactions; conditions: for Top1, compound-induced DNA cleavage due to Top1 inhibition: semiquantitative scale relative to 1 μM camptothecin (90) or MJ-III-65 (91)
Sequence of human recombinant Top1 (P11387 whole entry): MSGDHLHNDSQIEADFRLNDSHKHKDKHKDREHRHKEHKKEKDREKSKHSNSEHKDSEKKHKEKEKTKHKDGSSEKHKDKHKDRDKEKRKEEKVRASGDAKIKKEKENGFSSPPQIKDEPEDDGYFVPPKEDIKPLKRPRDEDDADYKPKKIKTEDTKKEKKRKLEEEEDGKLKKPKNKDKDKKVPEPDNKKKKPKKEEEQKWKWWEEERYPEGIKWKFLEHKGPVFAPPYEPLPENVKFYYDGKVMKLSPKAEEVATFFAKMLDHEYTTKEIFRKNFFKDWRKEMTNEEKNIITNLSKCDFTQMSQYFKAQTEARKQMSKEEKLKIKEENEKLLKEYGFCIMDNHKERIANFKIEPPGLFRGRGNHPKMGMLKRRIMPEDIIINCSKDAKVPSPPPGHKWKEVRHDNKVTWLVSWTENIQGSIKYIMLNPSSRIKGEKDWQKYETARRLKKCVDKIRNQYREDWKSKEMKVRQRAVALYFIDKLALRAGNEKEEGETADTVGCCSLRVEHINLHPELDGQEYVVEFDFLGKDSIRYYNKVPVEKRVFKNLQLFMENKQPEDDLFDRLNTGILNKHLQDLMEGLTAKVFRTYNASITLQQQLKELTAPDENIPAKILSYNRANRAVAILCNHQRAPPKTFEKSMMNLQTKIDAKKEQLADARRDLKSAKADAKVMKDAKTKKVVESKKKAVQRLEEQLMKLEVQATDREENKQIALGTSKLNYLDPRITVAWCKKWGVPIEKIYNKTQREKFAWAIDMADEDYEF
Procedure: Topoisomerase I-Mediated DNA Cleavage Reactions.
DNA cleavage reactions were prepared as previously reported with the exception of the DNA substrate. […] Unincorporated [^32P]dGTP was removed using mini Quick Spin DNA columns (Roche, Indianapolis, Ind.), and the eluate containing the 3′-end-labeled DNA substrate was collected. Approximately 2 nM radiolabeled DNA substrate was incubated with recombinant Top1 in 20 μL of reaction buffer [10 mM Tris-HCl (pH 7.5), 50 mM KCl, 5 mM MgCl2, 0.1 mM EDTA, and 15 μg/mL BSA] at 25° C. for 20 min in the presence of various concentrations of compounds. The reactions were terminated by adding SDS (0.5% final concentration) followed by the addition of two volumes of loading dye (80% formamide, 10 mM sodium hydroxide, 1 mM sodium EDTA, 0.1% xylene cyanol, and 0.1% bromphenol blue). Aliquots of each reaction mixture were subjected to 20% denaturing PAGE. Gels were dried and visualized by using a phosphoimager and ImageQuant software (Molecular Dynamics).
Top1 reactions were performed as recently described. […] The reactions were terminated by adding SDS (0.5% final concentration) followed by the addition of two volumes of loading dye (80% formamide, 10 mM sodium hydroxide, 1 mM sodium EDTA, 0.1% xylene cyanol, and 0.1% bromphenol blue). Reactions were subjected to 20% denaturing PAGE. Gels were dried and visualized by using a Typhoon 8600 and ImageQuant software (Molecular Dynamics).

Sequence of recombinant human Tdp1 (Q9NUW8 whole entry): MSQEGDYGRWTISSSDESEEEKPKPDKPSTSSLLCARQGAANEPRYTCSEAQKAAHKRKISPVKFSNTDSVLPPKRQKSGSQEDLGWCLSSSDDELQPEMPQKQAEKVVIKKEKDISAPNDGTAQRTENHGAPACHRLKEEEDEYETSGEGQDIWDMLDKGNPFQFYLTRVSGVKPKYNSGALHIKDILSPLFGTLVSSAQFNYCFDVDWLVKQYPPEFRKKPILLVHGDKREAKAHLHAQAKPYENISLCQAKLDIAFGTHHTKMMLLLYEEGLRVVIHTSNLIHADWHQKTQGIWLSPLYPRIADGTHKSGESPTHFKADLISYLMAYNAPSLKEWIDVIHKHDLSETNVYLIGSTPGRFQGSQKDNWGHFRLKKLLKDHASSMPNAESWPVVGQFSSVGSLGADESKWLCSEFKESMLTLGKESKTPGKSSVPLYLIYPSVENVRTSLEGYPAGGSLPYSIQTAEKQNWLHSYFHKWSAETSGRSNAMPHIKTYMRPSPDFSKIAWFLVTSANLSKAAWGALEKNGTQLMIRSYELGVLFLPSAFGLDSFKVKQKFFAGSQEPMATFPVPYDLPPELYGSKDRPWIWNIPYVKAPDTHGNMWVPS

Structure (SMILES) | Top1, compound-induced DNA cleavage due to Top1 inhibition (human recombinant Top1) | further results
CC(C)(C)OC(=O)NCCCn1c2c(c3ccc(NC(=O)CCCC(=O)O)cc3c1=O)C(=O)c1ccccc1-2 [Compound 30 of (B), 5-[(6-(3-((tert-Butoxycarbonyl)amino)propyl)-5,11-dioxo-6,11-dihydro-5H-indeno[1,2-c]isoquinolin-3-yl)amino]-5-oxopentanoic Acid] | 0 | IC50 (recombinant human Tdp1): > 111 µM
COC(=O)CCCC(=O)Nc1ccc2c3c(n(C)c(=O)c2c1)-c1ccccc1C3=O [Compound 12 of (B), Methyl 5-[(6-Methyl-5,11-dioxo-6,11-dihydro-5H-indeno[1,2-c]isoquinolin-3-yl)amino]-5-oxopentanoate] | + | –
Cc1ccc(S(=O)(=O)OCCCCCCCn2c3c(c4ccccc4c2=O)C(=O)c2ccccc2-3)cc1 [Compound 29, 7-(5,11-Dioxo-5H-indeno[1,2-c]isoquinolin-6(11H)-yl)heptyl-4-methyl-benzenesulfonate] | – | Tdp1 inhibitory activity (in words) (recombinant human Tdp1): weakly active
CC(C)(C)OC(=O)NCCCn1c2c(c3ccc(NC(=O)CCCCC(=O)O)cc3c1=O)C(=O)c1ccccc1-2 [Compound 31 of (B), 6-[(6-(3-((tert-Butoxycarbonyl)amino)propyl)-5,11-dioxo-6,11-dihydro-5H-indeno[1,2-c]isoquinolin-3-yl)amino]-6-oxohexanoic Acid] | (+) | –
COc1ccc2c(c1)-c1c(c3ccc([N+](=O)[O-])cc3c(=O)n1CCCN1CCOCC1)C2=O [Compound 53 of (B), 8-Methoxy-6-(3-morpholinopropyl)-3-nitro-5H-indeno[1,2-c]isoquinoline-5,11(6H)-dione] | ++ | Tdp1 inhibitory activity (in words) (recombinant human Tdp1): very weak or inactive
Cl.NCCCn1c2c(c3ccc(NC(=O)C(=O)O)cc3c1=O)C(=O)c1ccccc1-2 [Compound 32 of (B), 2-[(6-(3-Aminopropyl)-5,11-dioxo-6,11-dihydro-5H-indeno[1,2-c]isoquinolin-3-yl)amino]-2-oxoacetic Acid Hydrochloride] | + | –
COC(=O)CC(=O)Nc1ccc2c3c(n(C)c(=O)c2c1)-c1ccccc1C3=O [Compound 10 of (B), Methyl 3-[(6-Methyl-5,11-dioxo-6,11-dihydro-5H-indeno[1,2-c]isoquinolin-3-yl)amino]-3-oxopropanoate] | 0 | –
COC(=O)C(=O)Nc1ccc2c3c(n(C)c(=O)c2c1)-c1ccccc1C3=O [Compound 9 of (B), Methyl 2-[(6-Methyl-5,11-dioxo-6,11-dihydro-5H-indeno[1,2-c]isoquinolin-3-yl)amino]-2-oxoacetate] | 0 | –
COC(=O)CCC(=O)Nc1ccc2c3c(n(C)c(=O)c2c1)-c1ccccc1C3=O [Compound 11 of (B), Methyl 4-[(6-Methyl-5,11-dioxo-6,11-dihydro-5H-indeno[1,2-c]isoquinolin-3-yl)amino]-4-oxobutanoate] | (+) | –
N#Cc1ccc2c3c(n(CCCN4CCOCC4)c(=O)c2c1)-c1ccccc1C3=O [Compound 73] | ++ | IC50 (recombinant human Tdp1): > 111 µM
COc1ccc2c(c1)-c1c(c3ccc([N+](=O)[O-])cc3c(=O)n1CCCBr)C2=O [Compound 49 of (B), 6-(3-Bromopropyl)-5,6-dihydro-8-methoxy-3-nitro-5,11-dioxo-11H-indeno[1,2-c]isoquinoline] | +++ | Tdp1 inhibitory activity (in words) (recombinant human Tdp1): very weak or inactive
CC(C)(C)OC(=O)NCCCn1c2c(c3ccc(NC(=O)CCC(=O)O)cc3c1=O)C(=O)c1ccccc1-2 [Compound 29 of (B), 4-[(6-(3-((tert-Butoxycarbonyl)amino)propyl)-5,11-dioxo-6,11-dihydro-5H-indeno[1,2-c]isoquinolin-3-yl)amino]-4-oxobutanoic Acid] | (+) | IC50 (recombinant human Tdp1): 37 to 111 µM
COC(=O)CCC(=O)Nc1ccc2c3c(n(CCCNC(=O)OC(C)(C)C)c(=O)c2c1)-c1ccccc1C3=O [Compound 19 of (B), Methyl 4-[(6-(3-((tert-Butoxycarbonyl)amino)propyl)-5,11-dioxo-6,11-dihydro-5H-indeno[1,2-c]isoquinolin-3-yl)amino]-4-oxobutanoate] | 0 | IC50 (recombinant human Tdp1): > 111 µM
N#Cc1ccc2c3c(n(CCCn4ccnc4)c(=O)c2c1)-c1ccccc1C3=O [Compound 72] | ++ | IC50 (recombinant human Tdp1): > 111 µM
O=C1c2ccccc2-c2c1c1ccccc1c(=O)n2CCCl [Compound 30, 6-(2-Chloroethyl)-5H-indeno[1,2-c]isoquinoline-5,11(6H)-dione] | – | Tdp1 inhibitory activity (in words) (recombinant human Tdp1): inactive
CS(=O)(=O)NCCCCCCCn1c2c(c3ccccc3c1=O)C(=O)c1ccccc1-2 [Compound 85] | +++ | Top1 inhibition (in words) (human recombinant Top1): active; suppression of Top1-mediated DNA cleavage at high drug concentration (human recombinant Top1; high concentration of 100 μM): complete suppression
Cl.NCCCn1c2c(c3ccc(NC(=O)CCCCC(=O)O)cc3c1=O)C(=O)c1ccccc1-2 [Compound 36 of (B), 6-[(6-(3-Aminopropyl)-5,11-dioxo-6,11-dihydro-5H-indeno[1,2-c]isoquinolin-3-yl)amino]-6-oxohexanoic Acid Hydrochloride] | + | –
Cl.NCCCn1c2c(c3ccc(NC(=O)CCC(=O)O)cc3c1=O)C(=O)c1ccccc1-2 [Compound 34 of (B), 4-[(6-(3-Aminopropyl)-5,11-dioxo-6,11-dihydro-5H-indeno[1,2-c]isoquinolin-3-yl)amino]-4-oxobutanoic Acid Hydrochloride] | + | –
COc1ccc2c(c1)-c1c(c3ccc([N+](=O)[O-])cc3c(=O)n1CCCN=[N+]=[N-])C2=O [Compound 50 of (B), 6-(3-Azidopropyl)-5,6-dihydro-8-methoxy-3-nitro-5,11-dioxo-11H-indeno[1,2-c]isoquinoline] | + | Tdp1 inhibitory activity (in words) (recombinant human Tdp1): very weak or inactive
COC(=O)CCCC(=O)Nc1ccc2c3c(n(CCCNC(=O)OC(C)(C)C)c(=O)c2c1)-c1ccccc1C3=O [Compound 20 of (B), Methyl 5-[(6-(3-((tert-Butoxycarbonyl)amino)propyl)-5,11-dioxo-6,11-dihydro-5H-indeno[1,2-c]isoquinolin-3-yl)amino]-5-oxopentanoate] | 0 | IC50 (recombinant human Tdp1): > 111 µM
COC(=O)CCCCC(=O)Nc1ccc2c3c(n(C)c(=O)c2c1)-c1ccccc1C3=O [Compound 13 of (B), Methyl 6-[(6-Methyl-5,11-dioxo-6,11-dihydro-5H-indeno[1,2-c]isoquinolin-3-yl)amino]-6-oxohexanoate] | 0 | –
COC(=O)CCC(=O)Nc1ccc2c3c(n(CCCN)c(=O)c2c1)-c1ccccc1C3=O [Compound 24 of (B), Methyl 4-[(6-(3-Aminopropyl)-5,11-dioxo-6,11-dihydro-5H-indeno[1,2-c]isoquinolin-3-yl)amino]-4-oxobutanoate] | (+) | –
CCOC(=O)CNc1ccc2c3c(n(C)c(=O)c2c1)-c1ccccc1C3=O [Compound 38 of (B), Ethyl 2-[(6-Methyl-5,11-dioxo-6,11-dihydro-5H-indeno[1,2-c]isoquinolin-3-yl)amino]acetate] | 0 | Tdp1 inhibitory activity (in words) (recombinant human Tdp1; listed as 38): inactivity
Cl.NCCCn1c2c(c3ccc(NC(=O)CCCC(=O)O)cc3c1=O)C(=O)c1ccccc1-2 [Compound 35 of (B), 5-[(6-(3-Aminopropyl)-5,11-dioxo-6,11-dihydro-5H-indeno[1,2-c]isoquinolin-3-yl)amino]-5-oxopentanoic Acid Hydrochloride] | 0 | –
Cn1c2c(c3ccc(NCC(=O)O)cc3c1=O)C(=O)c1ccccc1-2 [Compound 41 of (B), 2-[(6-Methyl-5,11-dioxo-6,11-dihydro-5H-indeno[1,2-c]isoquinolin-3-yl)-amino]acetic Acid] | 0 | Tdp1 inhibitory activity (in words) (recombinant human Tdp1; listed as 41): inactivity
COC(=O)CC(=O)Nc1ccc2c3c(n(CCCNC(=O)OC(C)(C)C)c(=O)c2c1)-c1ccccc1C3=O [Compound 18 of (B), Methyl 3-[(6-(3-((tert-Butoxycarbonyl)amino)propyl)-5,11-dioxo-6,11-dihydro-5H-indeno[1,2-c]isoquinolin-3-yl)amino]-3-oxopropanoate] | 0 | IC50 (recombinant human Tdp1): > 111 µM
CC(C)(C)OC(=O)NCCCn1c2c(c3ccc(NCC(=O)O)cc3c1=O)C(=O)c1ccccc1-2 [Compound 42 of (B), 2-((6-(3-((tert-Butoxycarbonyl)amino)propyl)-5,11-dioxo-6,11-dihydro-5H-indeno[1,2-c]isoquinolin-3-yl)amino)acetic Acid] | 0 | Tdp1 inhibitory activity (in words) (recombinant human Tdp1): inactivity
Cl.NCCCn1c2c(c3ccc(NC(=O)CC(=O)O)cc3c1=O)C(=O)c1ccccc1-2 [Compound 33 of (B), 3-[(6-(3-Aminopropyl)-5,11-dioxo-6,11-dihydro-5H-indeno[1,2-c]isoquinolin-3-yl)amino]-3-oxopropanoic Acid Hydrochloride] | + | –
